Test [1] concerns human iPS cell line HC-6 #10. Description: Maturation culture of cell clusters in viscous medium (Experiment 16). Format: cell-based. The note with it: IGF-1 20 ng/ml, 10% fetal bovine serum and EC23 100 nM added together to the culture medium; day 45. On the procedure: Cell clusters were maturation-cultured in a viscous medium in accordance with the method shown in the upper section of FIG. 30. The viscous medium was prepared with reference to Japanese Patent No. 6176770. Specifically, 3 g of methylcellulose (manufactured by Sigma. Aldrich, Inc., viscosity: 4000 cP, M0512) was weighed, and sterilized by autoclaving in a 500 ml wide-open medium bottle containing an agitator, and then 100 ml of medium was added thereto. As the medium, a 1:1 in volume mixture of F-12+Glutamax medium and IMDM+Glutamax medium supplemented with 5% Knockout Serum Replacement, 10% fetal bovine serum (manufactured by Biosera), 450 μM 1-monothioglycerol, lx Chemically defined lipid concentrate, 50 unit/ml penicillin-50 μg/ml streptomycin, 20 ng/ml FGF-TS, 20 ng/ml EGF, 20 ng/ml IGF-1 (manufactured by R&D Systems), 10 μg/ml Heparin Sodium, 1 μM SB431542, 1 μM K02288, 300 nM CHIR99021, and 100 nM EC23 (retinoic acid signaling pathway-activating substance) was used. The medium bottle containing methylcellulose supplemented with the medium was stirred in a cryogenic chamber overnight using a stirrer corresponding to a high viscosity liquid (manufactured by Asahi Rika Factory. Ltd, AMG-H). […]

The subject of test [2] is human iPS cell line HC-6 #10. In words: Effect of TAK1 inhibitor in cell cluster production (Experiment 15). In kind it is cell-based. Conditions: 5z-7-oxozeaenol 2 μM from day 3 (step (3)); day 21.
Description: Human iPS cells (HC-6 #10 cell line, obtained from the Institute of Physical and Chemical Research) were subjected to maintenance culturing and step (a) in the same manner as in Experiment 1. The suspension culturing was started on a 96-well culture plate in the same manner as in Experiment 1, except that the number of cells per well was 9×10^3 cells.
At the start of suspension culturing (day 0 after the start of suspension culturing, start of step (1)), Y27632 (final concentration 20 μM), IWP-2 (final concentration 2 μM), SB-431542 (final concentration 1 μM) and CHIR99021 (final concentration 300 nM) were added to the serum-free medium.
On day 2 after the start of suspension culturing, a serum-free medium being free of Y27632 and containing SB-431542, BMP4, IWP-2 and CHIR99021 was added at 100 μl per well (start of step (2)). BMP4 was added to the medium at 3 nM to be a final concentration in the well of 1.5 nM.
On day 3 after the start of suspension culturing, the medium was half exchanged with a serum-free medium being free of Y27632 and BMP4 and containing IWP-2, SB-431542, FGF2, Heparin Sodium, and CHIR99021. In addition, a TAK1 inhibitor 5z-7-oxozeaenol (manufactured by Cayman Chemical) was added to the medium at 4 μM to be a final concentration in the well of 2 μM (start of step (3a)). […]

Turning to “IGF: 20 ng/ml IGF-1 (manufactured by R&D Systems) in the viscous medium”, the “maintenance of olfactory epithelial-like tissues” value in test [1] was “could further efficiently maintain olfactory epithelial-like tissues”.
In the case of `COc1cc(O)c2c(c1)/C=C/C[C@H](O)[C@H](O)C(=O)/C=C\C[C@H](C)OC2=O` [TAK1 inhibitor, (3S,5Z,8S,9S,11E)-3,4,9,10-tetrahydro-8,9,16-tri hydroxy-14-methoxy-3-methyl-1H-2-benzoxacyclotetradecin-1,7(8H)-dione], the “formation of olfactory epithelium-like tissues on the surface of the cell cluster versus cell cluster produced without the TAK1 inhibitor” value in test [2] is recorded as “more efficient formation of olfactory epithelium-like tissues”.
For the compound `CC1(C)CCC(C)(C)c2cc(C#Cc3ccc(C(=O)O)cc3)ccc21`, the “maintenance of olfactory epithelial-like tissues” value in test [1] is “could further efficiently maintain olfactory epithelial-like tissues”.

For the origin of these results see US20210308188A1, “CELL CLUSTER INCLUDING OLFACTORY NEURON OR PRECURSOR CELL THEREOF, AND METHOD FOR PRODUCING SAME” (SUMITOMO CHEMICAL COMPANY, LIMITED, priority 2018, published 2021).
